This note sets out measurements from patent US20210253557A1, “SUBSTITUTED TRIAZOLE DERIVATIVES AND USES THEREOF” (Bayer Pharma Aktiengesellschaft, priority 2017, published 2021).

As usually defined, the IC50 is the concentration at which inhibition is half-maximal.

The target of experiment [1] is T1, human V1a receptor (Homo sapiens, UniProt P37288).
T1 construct: expressed in transfected cells; host or cells: CHO K1 (ATCC), also stably transfected with a modified aequorin
Put plainly: Cellular in vitro assay for determining vasopressin receptor activity (V1a, aequorin luminescence). Format: cell-based. As to conditions: for IC50: CHO cell line transfected with the human V1a receptor, [Arg8]-vasopressin at EC50 concentration, read-out: IC50 hV1a; for ratio IC50 hV2/hV1a: selectivity ratio of IC50 hV2 to IC50 hV1a.

The target of experiment [2] is T2, human V2 receptor (Homo sapiens, UniProt P30518).
T2 construct: expressed in transfected cells; host or cells: CHO K1 (ATCC) expressing firefly luciferase under a CRE-responsive promoter
Put plainly: Cellular in vitro assay for determining vasopressin receptor activity (V2, CRE-luciferase). Format: cell-based. As to conditions: CHO cell line transfected with the human V2 receptor; [Arg8]-vasopressin at EC50 concentration; read-out: IC50 hV2. The essentials:
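Antagonism was measured as inhibition of a 3-h, EC50-level [Arg8]-vasopressin stimulation, with compounds tested at several concentrations, yielding IC50 values. The read-out was cAMP-driven CRE-luciferase luminescence after lysis, in recombinant CHO K1 cells carrying human V2 receptor. Cells were seeded in 2% FCS DMEM/F12 one day earlier.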

T2 sequence (P30518 whole entry): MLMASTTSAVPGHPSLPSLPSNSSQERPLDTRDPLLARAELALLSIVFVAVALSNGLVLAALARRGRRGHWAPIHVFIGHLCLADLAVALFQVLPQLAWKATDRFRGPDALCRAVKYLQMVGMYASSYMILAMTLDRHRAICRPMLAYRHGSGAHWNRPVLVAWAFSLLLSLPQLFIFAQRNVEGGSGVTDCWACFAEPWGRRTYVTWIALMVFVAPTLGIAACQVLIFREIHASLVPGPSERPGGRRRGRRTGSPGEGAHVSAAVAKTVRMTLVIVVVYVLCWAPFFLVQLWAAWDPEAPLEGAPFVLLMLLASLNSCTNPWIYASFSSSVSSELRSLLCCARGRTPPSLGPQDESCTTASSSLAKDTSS
T1 sequence (P37288 whole entry): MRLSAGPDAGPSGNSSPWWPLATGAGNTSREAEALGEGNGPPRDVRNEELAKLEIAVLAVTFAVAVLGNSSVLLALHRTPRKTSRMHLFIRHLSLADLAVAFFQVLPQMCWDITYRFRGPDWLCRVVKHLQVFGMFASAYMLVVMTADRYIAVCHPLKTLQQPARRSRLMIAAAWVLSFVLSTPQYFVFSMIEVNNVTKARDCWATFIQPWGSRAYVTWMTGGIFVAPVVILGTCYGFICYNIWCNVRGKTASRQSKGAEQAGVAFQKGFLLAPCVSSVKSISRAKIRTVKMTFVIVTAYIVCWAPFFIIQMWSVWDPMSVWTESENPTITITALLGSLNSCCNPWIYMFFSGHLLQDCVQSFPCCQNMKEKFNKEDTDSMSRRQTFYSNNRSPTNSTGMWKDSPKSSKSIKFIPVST

For `C[C@H](OC(N)=O)c1nc(Cn2nc(-c3ccc(Cl)cc3)n(C[C@H](O)C(F)(F)F)c2=O)nn1-c1ccccc1Cl` [Example 33, (1S)-1-[1-(2-Chlorophenyl)-3-({3-(4-chlorophenyl)-5-oxo-4-[(2S)-3,3,3-trifluoro-2-hydroxypropyl]-4,5-dihydro-1H-1,2,4-triazol-1-yl}methyl)-1H-1,2,4-triazol-5-yl]ethyl Carbamate], the IC50 worked out at 0.99 nM in experiment [1] and 3.63 nM in experiment [2]. In experiment [1], the “ratio IC50 hV2/hV1a” value is given as 3.7.

`CC(=O)NC(C)c1nc(Cn2nc(-c3ccc(Cl)cc3)n(C[C@H](O)C(F)(F)F)c2=O)nn1-c1ccccc1Cl` (single isomer, unassigned) [Example 66]: the values for the IC50 in experiment [1] and in experiment [2] were 3.75 nM and 52.5 nM, respectively. In addition, the “ratio IC50 hV2/hV1a” value in experiment [1] stood at 14.0.

For the molecule `O=C(NCC(F)(F)F)OCc1nc(Cn2nc(-c3ccc(Cl)cc3)n(C[C@H](O)C(F)(F)F)c2=O)nn1-c1cccc(F)c1` [Example 45, [3-({3-(4-Chlorophenyl)-5-oxo-4-[(2S)-3,3,3-trifluoro-2-hydroxypropyl]-4,5-dihydro-1H-1,2,4-triazol-1-yl}methyl)-1-(3-fluorophenyl)-1H-1,2,4-triazol-5-yl]methyl (2,2,2-trifluoroethyl)-carbamate], in experiment [1], the IC50 is 11.2 nM and the “ratio IC50 hV2/hV1a” value stood at 0.5. For the same molecule, in experiment [2], the IC50 is 5.13 nM.

In the case of `C[C@@H](OC(N)=O)c1nc(Cn2nc(-c3ccc(Cl)cc3)n(C[C@H](O)C(F)(F)F)c2=O)nn1-c1ccccc1OC(F)F` [Example 6, (1R)-1-{3-({3-(4-Chlorophenyl)-5-oxo-4-[(2S)-3,3,3-trifluoro-2-hydroxypropyl]-4,5-dihydro-1H-1,2,4-triazol-1-yl}methyl)-1-[2-(difluoromethoxy)phenyl]-1H-1,2,4-triazol-5-yl}ethyl Carbamate], in experiment [1], the IC50 is 0.81 nM and the “ratio IC50 hV2/hV1a” value turned out to be 25.6. Moreover, the IC50 in experiment [2] was determined as 20.7 nM.

`O=C1CC[C@@H](c2nc(Cn3nc(-c4ccc(Cl)cc4)n(C[C@H](O)C(F)(F)F)c3=O)nn2-c2ccccc2Cl)N1` [Example 102, 5-(4-Chlorophenyl)-2-({1-(2-chlorophenyl)-5-[(2S)-5-oxopyrrolidin-2-yl]-1H-1,2,4-triazol-3-yl}methyl)-4-[(2S)-3,3,3-trifluoro-2-hydroxypropyl]-2,4-dihydro-3H-1,2,4-triazol-3-one]: in experiment [1], the IC50 came to 0.25 nM and the “ratio IC50 hV2/hV1a” value was determined as 4.8. Moreover, the IC50 in experiment [2] was found to be 1.2 nM.

Regarding `CC(N)c1nc(Cn2nc(-c3ccc(Cl)cc3)n(C[C@H](O)C(F)(F)F)c2=O)nn1-c1cccc(F)c1` (single isomer, unassigned) [Example 55], in experiment [1], the IC50 is 18 nM and the “ratio IC50 hV2/hV1a” value came to 1.4. Also, the IC50 in experiment [2] worked out at 26 nM.

For `C[C@@H](OC(N)=O)c1nc(Cn2nc(-c3ccc(Cl)cc3)n(C[C@H](O)C(F)(F)F)c2=O)nn1-c1ccc(Cl)cn1` [Example 17, (1R)-1-[3-({3-(4-Chlorophenyl)-5-oxo-4-[(2S)-3,3,3-trifluoro-2-hydroxypropyl]-4,5-dihydro-1H-1,2,4-triazol-1-yl}methyl)-1-(5-chloropyridin-2-yl)-1H-1,2,4-triazol-5-yl]ethyl Carbamate], in experiment [1], the IC50 stood at 557 nM and the “ratio IC50 hV2/hV1a” value came out at 0.3. Further, the IC50 in experiment [2] turned out to be 150 nM.

With `CC(N)c1nc(Cn2nc(-c3ccc(Cl)cc3)n(C[C@H](O)C(F)(F)F)c2=O)nn1-c1ccccc1Cl` (single isomer, unassigned) [Example 62], in experiment [1], the IC50 is 0.97 nM and the “ratio IC50 hV2/hV1a” value is on record as 11.7. In addition, in experiment [2], the IC50 is 11.4 nM.

Take `CC(=O)NC(COC(C)(C)C)c1nc(Cn2nc(-c3ccc(Cl)cc3)n(C[C@H](O)C(F)(F)F)c2=O)nn1-c1ccccc1Cl` (single isomer, unassigned) [Example 90]: in experiment [1], the IC50 is 12.5 nM and the “ratio IC50 hV2/hV1a” value is 392.0. In experiment [2], the IC50 turned out to be 4900 nM.

On to `CC(=O)NC(CO)c1nc(Cn2nc(-c3ccc(Cl)cc3)n(C[C@H](O)C(F)(F)F)c2=O)nn1-c1ncccc1OC(F)(F)F` (single isomer, unassigned) [Example 121], for which, in experiment [1], the IC50 is 147 nM and the “ratio IC50 hV2/hV1a” value is on record as 18.8. In experiment [2], the IC50 was found to be 2780 nM.

As for `CN1C(=O)CCC1c1nc(Cn2nc(-c3ccc(Cl)cc3)n(C[C@H](O)C(F)(F)F)c2=O)nn1-c1ccccc1Cl` (mixture of isomers) [Example 70, 5-(4-Chlorophenyl)-2-{[1-(2-chlorophenyl)-5-(1-methyl-5-oxopyrrolidin-2-yl)-1H-1,2,4-triazol-3-yl]methyl}-4-[(2S)-3,3,3-trifluoro-2-hydroxypropyl]-2,4-dihydro-3H-1,2,4-triazol-3-one], the values for the IC50 in experiment [1] and in experiment [2] were 0.81 nM and 7.03 nM, respectively. Moreover, the “ratio IC50 hV2/hV1a” value in experiment [1] is 8.7.

As to `CC(=O)NC(C)c1nc(Cn2nc(-c3ccc(Cl)cc3)n(C[C@H](O)C(F)(F)F)c2=O)nn1-c1ccccc1Cl` (single isomer, unassigned) [Example 65], the IC50 in experiment [1] came to 2.05 nM; in experiment [2], 10.8 nM. The “ratio IC50 hV2/hV1a” value in experiment [1] is reported as 5.3.

For the molecule `O=C1CC[C@@H](c2nc(Cn3nc(-c4ccc(Cl)cc4)n(C[C@H](O)C(F)(F)F)c3=O)nn2-c2cnccc2Cl)N1` [Example 123, 5-(4-Chlorophenyl)-2-({1-(4-chloropyridin-3-yl)-5-[(2S)-5-oxopyrrolidin-2-yl]-1H-1,2,4-triazol-3-yl}methyl)-4-[(2S)-3,3,3-trifluoro-2-hydroxypropyl]-2,4-dihydro-3H-1,2,4-triazol-3-one], in experiment [1], the IC50 came to 1.1 nM and the “ratio IC50 hV2/hV1a” value was found to be 31.5. Moreover, the IC50 in experiment [2] came to 34.5 nM.

As for `CCNC(=O)OCc1nc(Cn2nc(-c3ccc(Cl)cc3)n(C[C@H](O)C(F)(F)F)c2=O)nn1-c1ccccc1Cl` [Example 47, [1-(2-Chlorophenyl)-3-({3-(4-chlorophenyl)-5-oxo-4-[(2S)-3,3,3-trifluoro-2-hydroxypropyl]-4,5-dihydro-1H-1,2,4-triazol-1-yl}methyl)-1H-1,2,4-triazol-5-yl]methyl Ethylcarbamate], in experiment [1], the IC50 is 0.43 nM and the “ratio IC50 hV2/hV1a” value turned out to be 16.6. The IC50 in experiment [2] turned out to be 7.16 nM.

With `CCNC(=O)OCc1nc(Cn2nc(-c3ccc(Cl)cc3)n(C[C@H](O)C(F)(F)F)c2=O)nn1-c1ccccc1C(F)(F)F` [Example 49, {3-({3-(4-Chlorophenyl)-5-oxo-4-[(2S)-3,3,3-trifluoro-2-hydroxypropyl]-4,5-dihydro-1H-1,2,4-triazol-1-yl}methyl)-1-[2-(trifluoromethyl)phenyl]-1H-1,2,4-triazol-5-yl}methyl ethylcarbamate], the values for the IC50 in experiment [1] and in experiment [2] were 0.99 nM and 16.7 nM, respectively. Besides, the “ratio IC50 hV2/hV1a” value in experiment [1] was found to be 16.9.

Regarding `C[C@H](OC(N)=O)c1nc(Cn2nc(-c3ccc(Cl)cc3)n(C[C@H](O)C(F)(F)F)c2=O)nn1-c1ncccc1F` [Example 12, (1S)-1-[3-({3-(4-Chlorophenyl)-5-oxo-4-[(2S)-3,3,3-trifluoro-2-hydroxypropyl]-4,5-dihydro-1H-1,2,4-triazol-1-yl}methyl)-1-(3-fluoropyridin-2-yl)-1H-1,2,4-triazol-5-yl]ethyl Carbamate], in experiment [1], the IC50 was found to be 35.5 nM and the “ratio IC50 hV2/hV1a” value worked out at 3.6. The IC50 in experiment [2] was 127 nM.

For the molecule `NC(=O)OCc1nc(Cn2nc(-c3ccc(Cl)cc3)n(C[C@H](OC(N)=O)C(F)(F)F)c2=O)nn1-c1cccc(Cl)c1` [Example 25, (2S)-3-[1-({5-[(Carbamoyloxy)methyl]-1-(3-chlorophenyl)-1H-1,2,4-triazol-3-yl}methyl)-3-(4-chlorophenyl)-5-oxo-1,5-dihydro-4H-1,2,4-triazol-4-yl]-1,1,1-trifluoropropan-2-yl Carbamate], the IC50 in experiment [1] amounted to 26.6 nM; in experiment [2] it was 2.26 nM. In addition, the “ratio IC50 hV2/hV1a” value in experiment [1] is 0.1.

With `CN1C(=O)CCC1c1nc(Cn2nc(-c3ccc(Cl)cc3)n(C[C@H](O)C(F)(F)F)c2=O)nn1-c1ncccc1Cl` (mixture of isomers) [Example 103, 5-(4-Chlorophenyl)-2-({1-(3-chloropyridin-2-yl)-5-[(2R)-1-methyl-5-oxopyrrolidin-2-yl]-1H-1,2,4-triazol-3-yl}methyl)-4-[(2S)-3,3,3-trifluoro-2-hydroxypropyl]-2,4-dihydro-3H-1,2,4-triazol-3-one], in experiment [1], the IC50 amounted to 1.45 nM and the “ratio IC50 hV2/hV1a” value worked out at 18.3. In experiment [2], the IC50 came to 26.5 nM.

Regarding `NC(=O)OCc1nc(Cn2nc(-c3ccc(Cl)cc3)n(C[C@H](O)C(F)(F)F)c2=O)nn1-c1ccccc1C(F)(F)F` [Example 52, {3-({3-(4-Chlorophenyl)-5-oxo-4-[(2S)-3,3,3-trifluoro-2-hydroxypropyl]-4,5-dihydro-1H-1,2,4-triazol-1-yl}methyl)-1-[2-(trifluoromethyl)phenyl]-1H-1,2,4-triazol-5-yl}methyl Carbamate], in experiment [1], the IC50 was 2.15 nM and the “ratio IC50 hV2/hV1a” value is 6.5. For the same molecule, the concentration for half-maximal inhibition (IC50) in experiment [2] was 14 nM.

With `CC(=O)NC(C)c1nc(Cn2nc(-c3ccc(Cl)cc3)n(C[C@H](O)C(F)(F)F)c2=O)nn1-c1ncccc1Cl` (single isomer, unassigned) [Example 108], in experiment [1], the IC50 is 6.03 nM and the “ratio IC50 hV2/hV1a” value was 11.5. Also, the IC50 in experiment [2] came to 69.4 nM.
